Results published in publication PMC12750394 (ACS Omega, 2025).
Bridge positions count the residues as written; N and C are the ends. Square brackets hold non-standard residues; d marks the D form. Peptide text beside a SMILES is read from it. * marks the point of attachment. X1 = CC[C@H](C)CCCCC(=O)*; Dab = NCC[C@H](N)C(=O)O

Columns and labels:
B. subtilis = assay: microbe, parasite or virus in culture; conditions: for average MIC against B. subtilis: microbroth dilution, 4 × 10^6 CFU/mL, 1 h at 37 °C, TSB added, 24 h at 37 °C, growth inhibition read visually, highest DesHDAP2 concentration […], three technical replicates each from four independent biological experiments; for MIC: Bacillus subtilis, read-out: average MIC against B. subtilis
Excerpt: The bacteria species and strains used in this study were: Top10 E. coli containing a pET plasmid with ampicillin resistance (Invitrogen Top10), S. marcescens (Carolina Biosciences #155554A), E. aerogenes (ATCC #51697), E. raffinosus (ATCC #49464), S. epidermidis (ATCC #14990) and B. subtilis (ATCC #6501). For radial diffusion, microbroth dilution, and checkerboard assays, bacterial cultures in tryptic soy broth (TSB) were started from individual colonies picked from agar plates and grown overnight (≈16–18 h) in a shaking incubator at 37 °C. Overnight bacterial cultures were diluted into fresh TSB and grown at 37 °C to an optical density (OD600) of 0.5–0.7. Bacteria were pelleted via centrifuge at 1500g at room temperature for 10 min, washed once with cold sterile sodium phosphate buffer (10 mM Na3PO4, 100 mM NaCl, pH 7.4), then pelleted and resuspended again in sodium phosphate buffer.
Antimicrobial activity was assessed using the microbroth dilution assay. A resuspended bacterial culture prepared as described above was mixed with deionized water to reach a final bacterial concentration of 4 × 10^6 CFU/mL. A twofold dilution series of peptides in deionized water was prepared. 10 μL of the serial dilutions were added to 90 μL of the 4 × 10^6 CFU/mL bacterial solution in a 96-well plate. […] After incubating for 1 h at 37 °C, 50 μL of TSB was added to each testing well. After incubation for 24 h at 37 °C, growth inhibition was determined visually to assess MIC.

E. coli = assay: microbe, parasite or virus in culture; conditions: for average MIC against E. coli: microbroth dilution, 4 × 10^6 CFU/mL, 1 h at 37 °C, TSB added, 24 h at 37 °C, growth inhibition read visually, highest DesHDAP2 concentration […], three technical replicates each from four independent biological experiments
Procedure: For radial diffusion, microbroth dilution, and checkerboard assays, bacterial cultures in tryptic soy broth (TSB) were started from individual colonies picked from agar plates and grown overnight (≈16–18 h) in a shaking incubator at 37 °C. Overnight bacterial cultures were diluted into fresh TSB and grown at 37 °C to an optical density (OD600) of 0.5–0.7. Bacteria were pelleted via centrifuge at 1500g at room temperature for 10 min, washed once with cold sterile sodium phosphate buffer (10 mM Na3PO4, 100 mM NaCl, pH 7.4), then pelleted and resuspended again in sodium phosphate buffer.
Antimicrobial activity was assessed using the microbroth dilution assay. A resuspended bacterial culture prepared as described above was mixed with deionized water to reach a final bacterial concentration of 4 × 10^6 CFU/mL. A twofold dilution series of peptides in deionized water was prepared. 10 μL of the serial dilutions were added to 90 μL of the 4 × 10^6 CFU/mL bacterial solution in a 96-well plate. […] After incubating for 1 h at 37 °C, 50 μL of TSB was added to each testing well.

Row | Compound | average MIC against B. subtilis (B. subtilis) [µg/mL] | average MIC against E. coli (E. coli) [µg/mL] | MIC (B. subtilis) [µg/mL] | MIC (E. coli; Escherichia coli, read-out: average MIC against E. coli) [µg/mL]
1 | NC[C@H]1O[C@H](O[C@H]2[C@H](O)[C@@H](O[C@H]3O[C@H](CO)[C@@H](O)[C@H](N)[C@H]3O)[C@H](N)C[C@@H]2N)[C@H](O)[C@@H](O)[C@@H]1O [kanamycin] | 3.125 | 50 | – | –
2 | C[C@H]1COc2c(N3CCN(C)CC3)c(F)cc3c(=O)c(C(=O)O)cn1c23 [levofloxacin] | – | – | 5 | 0.2
3 | CC[C@H](C)CCCCC(=O)N[C@@H](CCN)C(=O)N[C@H](C(=O)N[C@@H](CCN)C(=O)N[C@H]1CCNC(=O)[C@H]([C@@H](C)O)NC(=O)[C@H](CCN)NC(=O)[C@H](CCN)NC(=O)[C@H](CC(C)C)NC(=O)[C@@H](Cc2ccccc2)NC(=O)[C@H](CCN)NC1=O)[C@@H](C)O [polymyxin B] (X1-[Dab]T[Dab][Dab][Dab][dF]L[Dab][Dab]T; lactam 4-C (inferred); N-terminus assumed) | 2000 | 65 | – | –
4 | CN(C)[C@@H]1C(O)=C(C(N)=O)C(=O)[C@@]2(O)C(O)=C3C(=O)c4c(O)cccc4[C@@](C)(O)[C@H]3C[C@@H]12 [tetracycline] | – | – | 15.6 | –
